We go through 84 compounds from a melting point compilation (Tetko et al.; mined from patent text by program, amines drawn as free bases though some values may be those of a salt).

The structures appear in SMILES notation.

As to `COC(=O)C[C@H]1[C@@H](C(C)=O)C(=O)N1C(c1ccccc1)(c1ccccc1)c1ccccc1`, the melting point (usually the temperature, or range, at which the solid turns liquid) was in the range of 52 to 54 °C.
`CC1(CO)CCC2(CC1)OCCO2`: the melting point is 42 to 43 °C.
The figure for `Cc1ccc(S(=O)(=O)N[C@@H](C)C(=O)Oc2c[nH]c(-c3ccccc3)c2)cc1` is 154 to 155 °C; for `C#CCOc1cc(OCC=C)ccc1-c1nc2ncccc2[nH]1` it is 210 °C.
As to `Cc1cc(CCCCCCCOc2ccc(C(N)=O)cc2)on1`, the melting point lay within 153 to 154 °C.
`COCOc1ccc(C=CC(=O)c2c(O)cc(OC)cc2OC)cc1` yielded a melting point of 104 °C.
The result for `CN(C1CCN(Cc2ccc(F)cc2)CC1)S(=O)(=O)c1ccc(Nc2nccc(Nc3ccc(F)cc3)n2)cc1` reads 129 to 131 °C.
Turning to `CCOC(c1ccc(Cl)c2nc3n(c12)CCCN3c1ccc(Cl)cc1Cl)C1CC1` (centres undefined), the melting point lay within 138 to 140 °C.
`COc1ccc2oc(C(=O)c3cc(F)ccc3F)cc2c1` registered a melting point of 75 to 78 °C.
The figure for `Cc1cc(-c2ccc(-c3ccco3)cc2)cc(S(N)(=O)=O)c1-n1ccc(C(F)(F)F)n1` is 87 to 89 °C; for `Cn1c(COc2ccc(CC3SC(=O)NC3=O)cc2)nc2ncccc21` (centres undefined) it is 231 to 232 °C; for `CCCCCCCCCCCC1=NC(=Cc2[nH]c(-c3ccc[nH]3)cc2OCC)C=C1` it is 94 to 96 °C.
Consider `COc1ccc(NS(=O)(=O)c2ccc(N3CCC(NCC(O)c4ccc(O)c(NS(C)(=O)=O)c4)CC3)cc2)cc1OC` (centres undefined), for which the melting point was 205 to 218 °C.
In the case of `O=C(Nc1ccc(C(F)(F)F)cc1)NC1CCN(S(=O)(=O)c2ccc(C(=O)O)cc2)CC1`, the melting point was in the range of 188 to 192 °C.
The result for `O=C(O)c1ccc(OCCCCCCc2cccc(O)c2O)cc1O` reads 179 to 180 °C; that for `CCOc1ccc(N=c2ccn3ccccc3c2)cc1`, 157 to 159 °C; that for `CC12CC(F)C3(Br)C(CCC4=CC(=O)CCC43C)C1CCC2=O` (centres undefined), 165 to 166 °C.
The figure for `COc1ccc(-n2c(C)nc3cnccc32)cc1OC1CCCC1` is 144 to 145 °C.
On to `C[C@@H]1Cc2ccsc2[C@H](C)N1CCNC(=O)c1ccc(NS(=O)(=O)c2ccc(Cl)cc2)cc1` (relative stereo), for which the melting point fell in the range of 107 to 111 °C.
`COc1cc(OC)nc(Sc2ccnc3cc(Cl)ccc23)n1` showed a melting point of 93 to 94.5 °C.
In turn, `CC(=O)Nc1ccc(Sc2cccn3nc(Cl)nc23)cc1` displayed a melting point of 148 to 150 °C.
`O=C(OCc1ccccc1)c1ccc(OC(=O)c2ccccc2C(=O)Oc2ccc(C(=O)OCc3ccccc3)cc2)cc1` had a melting point of 100 to 103 °C.
In turn, `CCN1C(=O)C(C(=O)Nc2ccccc2S(C)=O)c2cc3c(cc21)CCO3` (centres undefined) came in with a melting point of 137 to 138 °C.
Compound `O=C(NCCC1CCCCC1)c1c(Cl)ccc2nc(N3CCC(C(=O)O)CC3)ccc12` returned a melting point of 253 to 256 °C.
The figure for `CN(CC(O)c1cccc(OCc2ccccc2)c1)C(=O)c1cnc(N(C)C)nc1-c1ccc(Cl)c(Cl)c1` (centres undefined) is 68 to 70 °C; for `CC(C)(C)OC(=O)N[C@@H](Cc1ccccc1)[C@H](C#N)OC(=O)c1ccc(-c2ccccn2)cc1` it is 140 to 141 °C; for `CC(Cc1ccc(Cl)c(OC(F)(F)C(F)F)c1)NC(=O)C1C2=C(C=CC1(O)c1ccc(F)cc1)CCCC=C2` (centres undefined) it is 174 to 175 °C.
`Clc1ccc(-c2nc3c(c(NC4CCCC4)n2)CCC3)cc1` returned a melting point of 167 °C.
Take `S=C1CN=C(c2ccccc2Cl)c2cc(CCc3ccc(-c4ccccc4)cc3)sc2N1`: the melting point was 187 to 189 °C.
Take `Cc1cc(CCCOc2c(C)cc(C(=O)O)cc2C)on1`: the melting point was in the range of 156 to 157 °C.
As to `CN1CCN(CCOc2ccc3nc(C#N)nc(NC4CCCC4)c3c2)CC1`, the melting point fell in the range of 110 to 112 °C.
For `CC1(C)Oc2ccc(C#N)cc2[C@@H](NC2=C(CO)C(=O)CC2)[C@@H]1O` (relative stereo), the melting point fell in the range of 218 to 220 °C.
In turn, `O=C(Nc1ccc2cc(CN3CCCC3)ccc2c1)N1CCC(c2ccc(Cl)cc2)CC1` gave a melting point of 209 to 211 °C.
The figure for `Cc1nc2c(N)nc3ccccc3c2n1CCCC1(C)OCCO1` is 193 to 195 °C; for `CCOC(=O)C1Cc2cc3c(C)noc3c(Cl)c2O1` (centres undefined) it is 123 to 124 °C; for `CC1(C)CC2(CC(C)(C)c3ccc(Oc4ccc(N)cc4)cc32)c2cc(Oc3ccc(N)cc3)ccc21` it is 214 to 215 °C.
`CCOC(=O)c1cn2c(cc(OC)c3ccccc32)n1` returned a melting point of 175 to 176 °C.
`CC(Cc1cccc(NC(N)=O)c1)NC=O` (centres undefined): the melting point fell in the range of 133 to 136 °C.
The figure for `COCCCCCCCCCCCC(=O)Nc1cccc(C(=O)O)c1` is 169 to 171 °C; for `O=[N+]([O-])c1cccc(-c2nnc(Nc3cccc(Br)c3)s2)c1` it is 228 to 231 °C; for `COc1ccc(-c2cc(NC(=O)Nc3ccc(N(CCCl)CCCl)cc3)c3cc(OC)ccc3n2)cc1` it is 112 to 113 °C.
`CC(=O)Nc1c(C(=O)c2ccccc2)[nH]c2ccc([N+](=O)[O-])cc12`: the melting point lay in the range of 210 to 212 °C.
The compound `O=c1ncc(Cl)cn1Cc1ccccc1` had a melting point of 197 °C.
Consider `Cc1cc(O)c(N)c([N+](=O)[O-])c1C`, for which the melting point lay within 176 to 178 °C.
`CCCCCCCc1nc(-c2ccccc2)c(-c2ccccc2)n1CCCCCCCC(=O)O` showed a melting point of 75 to 76 °C.
`O=C(O)Cc1c(Cl)nc(-c2ccccc2)n1Cc1ccc(O)cc1` registered a melting point of 196 to 199 °C.
Regarding `Nc1cccc(Cn2c(-c3ccccc3Cl)cc3ccc(Oc4cncnc4)cc32)n1`, the melting point lay in the range of 115 to 117 °C.
In turn, `COc1ccccc1SC(CCc1ccc(Cl)cc1)Cn1ccnc1` (centres undefined) displayed a melting point of 105 to 106 °C.
As for `Cc1c(C)c(N2C(=O)c3ccccc3C2=O)c(C)c2c1OC(C)(C)C2c1ccc(F)cc1` (centres undefined), the melting point was in the range of 209 to 211 °C.
`CC(=O)N1C(C(=O)c2cn(C(=O)OC(C)(C)C)c3ccccc23)CSC1c1cccnc1` (centres undefined) gave a melting point of 141 to 143 °C.
The figure for `CCCCCCCCCC(=O)Nc1cc(NC(=O)CCCCCCCCC)cc(N(CC(=O)OCc2ccccc2)CC(=O)OCc2ccccc2)c1` is 127 to 129 °C; for `CN1C(=O)[C@H](NC(=O)/C=C/c2ccccc2Cl)N=C(c2ccccc2)c2ccccc21` it is 128 to 131 °C.
In turn, `O=C1C(=Cc2ccccc2O)c2ccccc2N1C1=NCCS1` had a melting point of 196 to 197 °C.
In turn, `CNC(=NS(C)(=O)=O)Nc1ccc(C2=NNC(=O)CC2C)cc1` (centres undefined) showed a melting point of 228 to 230 °C.
`Cc1ccc(-c2cc(C(=O)C=Cc3ccc(C(=O)O)cc3)cc(C(C)(C)C)c2OCC(C)C)cc1` returned a melting point of 243 °C.
Compound `CCOC(=O)c1ccnn1-c1c(Cl)cccc1Cl` showed a melting point of 51 to 53 °C.
The compound `CCN(CC)CC1CCCCN1CCCNC(=O)N1c2ccccc2NC(=O)c2ccccc21` (centres undefined) came in with a melting point of 148 to 150 °C.
The compound `O=C(CC(=O)Nc1ccccc1Cl)CS(=O)(=O)C(c1ccc(Cl)cc1)c1ccc(Cl)cc1` gave a melting point of 92 to 95 °C.
For the compound `COC(=O)c1cc(O)nn1C1CCCCC1`, the melting point was in the range of 195 to 196 °C.
`COc1ccc(-c2nc(CN3CCCCC3)nc3cc(OC)c(OC)cc23)cc1OC` came in with a melting point of 130 to 132 °C.
Take `OC(Cn1cncn1)(CC(Cl)(Cl)Cl)c1cc(Cl)cc(Cl)c1` (centres undefined): the melting point was 186 °C.
With `CCc1nc(-c2cccc(C)c2)c(-c2ccnc(NCC3CCCCC3)c2)s1`, the melting point was 74 to 75 °C.
`Cc1cccc(C)c1C(=O)c1nc[nH]c1C` came in with a melting point of 179 to 181 °C.
On to `COC(=O)Cn1ccc2ccc(-c3csc(-c4ccccc4)n3)cc21`, for which the melting point is 83 °C.
As to `Cc1ccc(N(Cc2ccc(N(C)C)cc2)C(=O)Nc2c(C(C)C)cccc2C(C)C)cc1`, the melting point fell in the range of 124 to 125 °C.
As for `CCCCN(CCCC)c1ccc(C=Cc2cc(C)c(C=CC3=C(C#N)C(=C(C#N)C#N)OC3(C)C)cc2C)c(OC)c1`, the melting point lay within 242 to 244 °C.
For the compound `CCN(CC)c1ccc(NC(=S)N(C)N)cn1`, the melting point was 147 to 149 °C.
As to `Cc1cccc(-c2coc3cc(O)c(O)cc3c2=O)c1`, the melting point was 258 °C.
The figure for `CCCCCCNC(=O)OCCCCCCNC(=O)OC1CCN(C(=O)Oc2ccc(C3CCCCC3)cc2)CC1` is 94 to 96 °C; for `CN(C)C=CC(=O)c1c(-c2ccccc2Cl)nc2occn12` it is 187 to 189 °C; for `CCOc1cc([N+](=O)[O-])c(C)c(C)c1[N+](=O)[O-]` it is 64 to 66 °C.
Consider `CCCCOC(=O)C(NC(=O)OCc1ccccc1)c1cccs1` (centres undefined), for which the melting point came out at 37 °C.
In turn, `CCCCOC(=O)c1cc2c3ccccc3[nH]c(=O)n2n1` registered a melting point of 190 to 195 °C.
For the compound `CN(C)c1cccc(CC(=O)C(F)(F)c2ccccc2)c1`, the melting point was 76 to 77 °C.
The figure for `Cc1ccc(S(=O)(=O)OCC2Cc3cc(Cl)cc(C(C)(C)C)c3O2)cc1` (centres undefined) is 74 to 77 °C.
In turn, `CCOC(=O)c1c(N)n(C)c2cc(Cl)ccc12` displayed a melting point of 155 to 157 °C.
In turn, `CC(C)c1ccc(C(=O)CC(c2ccccc2)c2ccccc2)c(C(C)C)c1OS(N)(=O)=O` showed a melting point of 149 to 152 °C.
`COCC1CNc2nc(N)[nH]c(=O)c2N1` (racemic) registered a melting point greater than 250 °C.
Take `CCN(CC)C(=O)c1cncc(OC2SCC(O)C(O)C2O)c1` (centres undefined): the melting point worked out at 143 °C.
The result for `Cc1nc2cnccc2n1-c1ccc(C2=Nc3cc(Cl)c(Cl)cc3N3CCN=C3C2)cc1` reads 159 to 162 °C; that for `COc1cc2nc(N3CCc4ccc(N)cc4C3)nc(N)c2cc1OC`, 265 to 266 °C; that for `COc1cc2c(cc1OC)CC(C(=O)N1CCN(C(=O)c3cc(OC)c(OC)c(OC)c3)CC1)=C2`, 183 to 185 °C.
The figure for `COc1cc(C=O)ccc1OCCCl` is 60 to 61 °C.
`O=[N+]([O-])c1ccc(Oc2cccc3cccnc23)cc1` showed a melting point of 165 to 166 °C.
